US11098044B2, “Imidazopyridinyl compounds and use thereof for treatment of neurodegenerative disorders” (1ST Biotherapeutics, Inc., priority 2019, dated 2021)

Key:
Type in all cases: biochemical
[1] = biological target: c-Abl (His-tagged recombinant human ABL1) (Homo sapiens (Human), UniProt P00519); test: c-abl Kinase Assay (ADP-Glo); settings: ATP (25 μM), Abltide substrate
Experimental: ADP-Glo assay kit was purchased from Promega. Magnesium chloride (MgCl2), bovine serum albumin (BSA), ethylene glycol-bis(p-aminoethyl ether)-N,N,N′,N′-tetraacetic acid (EGTA), triton X-100, 1,4-dithiothreitol (DTT) and dimethyl sulfoxide (DMSO) were purchased from Sigma-Aldrich. HEPES buffer was purchased from Gibco. ABL1 kinase and Abltide were purchased from Signalchem.
c-Abl kinase activity was measured by Promega's ADP-Glo™ Assay. In this assay, His-tagged recombinant human ABL1 (0.25 ng/μl) is incubated with 5 μL of compounds (0.5% DMSO), 5 μL of Abltide (0.01 μg/μl) and 5 μL of ATP (25 μM) in buffer (50 mM HEPES, 7.5; 10 mM MgCl2; 1 mM EGTA; 0.05% BSA; 0.01% Triton X-100; 2 mM DTT). The assay was started by incubating the reaction mixture in a 96-well plate at 30° C. for 30-min. After the incubation, 25 μL ADP-Glo reagent was added and the reaction was incubated at room temperature for 40-min to stop the reaction and degrade residual ATP. The ADP product was then converted to ATP by adding 50 μL per well of detection reagent. Luminescence was detected after 30-min room temperature incubation with the Molecular device I3X plate reader. The IC50 values were calculated from a series of percent inhibition values determined at a range of inhibitor concentration using software routines as implemented in the GraphPad Prism 7 software and Sigma Plot 13.0.

[2] = biological target: LRRK2 (WT) (Homo sapiens (Human), UniProt Q5S007); test: LRRK2 Kinase Assay (Adapta); settings: 70 μM ATP, LRRKtide substrate
LRRK2 (WT), sequence (Q5S007 whole entry): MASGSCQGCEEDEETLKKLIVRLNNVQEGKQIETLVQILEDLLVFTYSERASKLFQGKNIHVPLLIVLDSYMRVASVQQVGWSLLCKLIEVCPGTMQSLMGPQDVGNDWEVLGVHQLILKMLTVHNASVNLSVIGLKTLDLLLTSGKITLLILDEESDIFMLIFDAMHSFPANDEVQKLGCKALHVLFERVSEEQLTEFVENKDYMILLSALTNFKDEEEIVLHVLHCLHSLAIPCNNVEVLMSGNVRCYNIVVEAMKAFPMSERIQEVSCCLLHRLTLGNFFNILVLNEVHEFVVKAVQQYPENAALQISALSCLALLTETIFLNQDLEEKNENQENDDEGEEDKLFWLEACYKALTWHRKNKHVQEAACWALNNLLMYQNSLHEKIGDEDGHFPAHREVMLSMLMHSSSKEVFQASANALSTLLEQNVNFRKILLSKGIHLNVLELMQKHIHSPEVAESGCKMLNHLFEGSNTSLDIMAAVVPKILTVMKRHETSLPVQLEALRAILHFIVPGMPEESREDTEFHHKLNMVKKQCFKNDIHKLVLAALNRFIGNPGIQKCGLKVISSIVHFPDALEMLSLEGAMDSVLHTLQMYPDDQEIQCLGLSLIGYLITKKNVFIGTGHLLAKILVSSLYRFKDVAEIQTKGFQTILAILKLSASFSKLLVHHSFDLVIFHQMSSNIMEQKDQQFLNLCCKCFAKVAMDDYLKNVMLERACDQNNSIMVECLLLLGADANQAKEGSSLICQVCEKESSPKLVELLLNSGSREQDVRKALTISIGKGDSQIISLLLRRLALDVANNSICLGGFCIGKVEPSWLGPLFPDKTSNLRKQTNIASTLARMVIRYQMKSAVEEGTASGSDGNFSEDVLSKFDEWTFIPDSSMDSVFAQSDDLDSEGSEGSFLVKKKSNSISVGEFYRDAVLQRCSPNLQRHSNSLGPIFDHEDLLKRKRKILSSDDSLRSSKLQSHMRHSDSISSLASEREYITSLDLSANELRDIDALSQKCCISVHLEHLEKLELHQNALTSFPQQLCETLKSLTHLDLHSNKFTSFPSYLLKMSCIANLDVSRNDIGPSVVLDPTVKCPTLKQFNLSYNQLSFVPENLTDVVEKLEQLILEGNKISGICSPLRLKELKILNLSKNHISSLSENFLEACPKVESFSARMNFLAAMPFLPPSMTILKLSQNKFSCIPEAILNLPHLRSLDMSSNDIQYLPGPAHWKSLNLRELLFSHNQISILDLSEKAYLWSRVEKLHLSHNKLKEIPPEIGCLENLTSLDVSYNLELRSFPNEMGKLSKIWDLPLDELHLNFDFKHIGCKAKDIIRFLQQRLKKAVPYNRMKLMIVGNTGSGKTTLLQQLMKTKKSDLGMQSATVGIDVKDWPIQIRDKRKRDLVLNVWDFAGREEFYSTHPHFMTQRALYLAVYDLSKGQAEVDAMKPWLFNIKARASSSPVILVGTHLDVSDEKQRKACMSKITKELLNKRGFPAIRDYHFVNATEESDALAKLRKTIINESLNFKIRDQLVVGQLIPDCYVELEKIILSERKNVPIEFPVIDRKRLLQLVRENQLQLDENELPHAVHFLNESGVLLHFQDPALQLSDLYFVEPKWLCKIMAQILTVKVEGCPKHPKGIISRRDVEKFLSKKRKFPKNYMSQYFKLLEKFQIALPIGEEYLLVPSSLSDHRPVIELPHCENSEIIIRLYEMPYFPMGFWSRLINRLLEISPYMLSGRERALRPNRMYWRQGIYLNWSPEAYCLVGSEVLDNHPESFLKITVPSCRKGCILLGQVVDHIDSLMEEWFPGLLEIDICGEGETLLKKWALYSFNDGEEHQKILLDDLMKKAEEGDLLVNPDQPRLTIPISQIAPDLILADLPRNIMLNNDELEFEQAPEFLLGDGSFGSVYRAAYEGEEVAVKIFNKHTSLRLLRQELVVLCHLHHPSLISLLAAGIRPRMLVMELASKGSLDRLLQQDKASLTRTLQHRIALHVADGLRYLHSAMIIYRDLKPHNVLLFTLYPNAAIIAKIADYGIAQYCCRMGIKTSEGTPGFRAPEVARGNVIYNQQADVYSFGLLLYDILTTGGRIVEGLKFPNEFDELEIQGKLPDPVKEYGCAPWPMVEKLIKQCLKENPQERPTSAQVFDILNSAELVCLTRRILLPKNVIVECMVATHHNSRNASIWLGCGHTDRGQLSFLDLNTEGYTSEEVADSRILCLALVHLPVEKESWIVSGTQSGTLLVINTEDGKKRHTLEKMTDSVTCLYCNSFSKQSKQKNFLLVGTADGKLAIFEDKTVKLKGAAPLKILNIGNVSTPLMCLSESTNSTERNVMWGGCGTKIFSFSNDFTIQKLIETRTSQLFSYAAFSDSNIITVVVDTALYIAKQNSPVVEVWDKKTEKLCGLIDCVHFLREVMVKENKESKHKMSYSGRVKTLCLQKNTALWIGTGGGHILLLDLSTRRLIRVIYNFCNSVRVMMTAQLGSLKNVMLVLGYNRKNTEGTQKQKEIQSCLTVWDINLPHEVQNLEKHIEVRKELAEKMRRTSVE
Experimental: (§1) The LRRK2 and LRRK2 G2019S kinase assays were performed using the Adapta™ technology in ThermoFisher Scientific. This experiment was carried out according to the supplier's protocol. Briefly, assay conditions were as follows. The mixture of substrate (LRRKtide) and each kinase was prepared in 50 mM Tris pH 8.5, 0.01% BRIJ-35, 10 mM MgCl2, 1 mM EGTA, 0.02% NaN3. Assays were performed in the presence of 70 μM ATP and 100 μM ATP (KmATP) in LRRK2 and LRRK2 G2019S, respectively. The reaction was progressed at room temperature for 1 hour. Upon completion of kinase reaction, 5 μL of Detection Mix was added and after 60 min incubation time, the emission ratio of 665/615 nm was calculated.

[3] = biological target: LRRK2 G2019S (Homo sapiens (Human), UniProt Q5S007, G2019S); test: LRRK2 G2019S Kinase Assay (Adapta); settings: 100 μM ATP, LRRKtide substrate; read-out: LRRK2_G2019S IC50
LRRK2 G2019S, sequence (Q5S007 whole entry G2019S): as the sequence (Q5S007 whole entry) above, with G2019S counted along it
Experimental: as §1

c-Abl (His-tagged recombinant human ABL1), sequence (P00519 whole entry): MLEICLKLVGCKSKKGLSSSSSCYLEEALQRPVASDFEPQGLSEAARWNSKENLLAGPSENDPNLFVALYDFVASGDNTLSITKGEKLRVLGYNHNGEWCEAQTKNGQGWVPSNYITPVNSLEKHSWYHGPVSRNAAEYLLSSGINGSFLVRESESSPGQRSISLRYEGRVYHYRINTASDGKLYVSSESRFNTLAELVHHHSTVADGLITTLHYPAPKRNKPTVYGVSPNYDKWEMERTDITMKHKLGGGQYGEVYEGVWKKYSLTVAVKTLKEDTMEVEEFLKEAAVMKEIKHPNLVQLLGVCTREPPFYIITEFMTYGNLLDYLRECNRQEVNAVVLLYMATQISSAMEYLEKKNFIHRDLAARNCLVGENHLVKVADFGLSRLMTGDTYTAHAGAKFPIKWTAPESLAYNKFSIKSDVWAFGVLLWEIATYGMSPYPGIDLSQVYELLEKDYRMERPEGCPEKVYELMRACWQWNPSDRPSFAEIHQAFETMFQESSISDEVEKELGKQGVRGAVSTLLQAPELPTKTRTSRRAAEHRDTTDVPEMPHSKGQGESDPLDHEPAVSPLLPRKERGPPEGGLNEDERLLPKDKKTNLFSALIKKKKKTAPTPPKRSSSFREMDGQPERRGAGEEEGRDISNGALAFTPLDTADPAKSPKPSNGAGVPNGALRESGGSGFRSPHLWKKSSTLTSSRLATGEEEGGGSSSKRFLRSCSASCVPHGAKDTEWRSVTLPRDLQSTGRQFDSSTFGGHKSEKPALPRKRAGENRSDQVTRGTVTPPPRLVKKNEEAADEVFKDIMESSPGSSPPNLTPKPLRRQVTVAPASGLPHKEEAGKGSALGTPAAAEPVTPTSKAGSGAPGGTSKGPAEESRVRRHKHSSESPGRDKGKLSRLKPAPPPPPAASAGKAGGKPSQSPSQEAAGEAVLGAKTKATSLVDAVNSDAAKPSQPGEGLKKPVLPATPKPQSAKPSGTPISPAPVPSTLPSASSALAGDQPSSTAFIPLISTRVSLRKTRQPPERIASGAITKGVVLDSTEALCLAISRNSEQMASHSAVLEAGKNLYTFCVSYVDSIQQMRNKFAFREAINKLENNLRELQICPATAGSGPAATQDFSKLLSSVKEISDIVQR

| Compound | IC50 [1] [nM] | IC50 [2] [nM] | IC50 [3] [nM] |
| --- | --- | --- | --- |
| Cc1cccc(F)c1-c1ccc2nc(NC(=O)[C@@H]3C[C@@H]3F)c(Cl)n2c1 [Example 4, (1S,2S)—N-(3-chloro-6-(2-fluoro-6-methylphenyl)imidazo[1,2-a]pyridin-2-yl)-2-fluorocyclopropane-1-carboxamide] | 10 to 100 | > 1000 | 101 to 1000 |
| Cc1ccncc1-c1ccc2nc(NC(=O)[C@@H]3C[C@@H]3F)c(C)n2c1 [Example 5, (1S,2S)-2-fluoro-N-(3-methyl-6-(4-methylpyridin-3-yl)imidazo[1,2-a]pyridin-2-yl)cyclopropane-1-carboxamide] | 101 to 1000 | > 1000 | > 1000 |
| Cc1ccncc1-c1ccc2nc(NC(=O)[C@@H]3C[C@@H]3F)cn2c1 [Example 6, (1S,2S)-2-fluoro-N-(6-(4-methylpyridin-3-yl)imidazo[1,2-a]pyridin-2-yl)cyclopropane-1-carboxamide] | 10 to 100 | 101 to 1000 | 101 to 1000 |
| Cc1ccncc1-c1ccc2nc(NC(=O)[C@@H]3C[C@@H]3F)c(Cl)n2c1 [Example 7, (1S,2S)—N-(3-chloro-6-(4-methylpyridin-3-yl)imidazo[1,2-a]pyridin-2-yl)-2-fluorocyclopropane-1-carboxamide] | 101 to 1000 | > 1000 | > 1000 |
| Cc1c(F)cccc1-c1ccc2nc(NC(=O)[C@@H]3C[C@@H]3F)c(C)n2c1 [Example 8, (1S,2S)-2-fluoro-N-(6-(3-fluoro-2-methylphenyl)-3-methylimidazo[1,2-a]pyridin-2-yl)cyclopropane-1-carboxamide] | 10 to 100 | 101 to 1000 | 101 to 1000 |
| Cc1cccc(F)c1-c1ccc2nc(NC(=O)[C@@H]3C[C@@H]3F)c(C)n2c1 [Example 9, (1S,2S)-2-fluoro-N-(6-(2-fluoro-6-methylphenyl)-3-methylimidazo[1,2-a]pyridin-2-yl)cyclopropane-1-carboxamide] | 10 to 100 | 101 to 1000 | 101 to 1000 |
| Cc1c(F)cncc1-c1ccc2nc(NC(=O)[C@@H]3C[C@@H]3F)c(C)n2c1 [Example 10, (1S,2S)-2-fluoro-N-(6-(5-fluoro-4-methylpyridin-3-yl)-3-methylimidazo[1,2-a]pyridin-2-yl)cyclopropane-1-carboxamide] | 101 to 1000 | > 1000 | > 1000 |
| Cc1ccc(F)cc1-c1ccc2nc(NC(=O)[C@@H]3C[C@@H]3F)cn2c1 [Example 11, (1S,2S)-2-fluoro-N-(6-(5-fluoro-2-methylphenyl)imidazo[1,2-a]pyridin-2-yl)cyclopropane-1-carboxamide] | < 10 | 10 to 100 | 10 to 100 |
| Cc1ccc(O)cc1-c1ccc2nc(NC(=O)[C@@H]3C[C@@H]3F)cn2c1 [Example 12, (1S,2S)-2-fluoro-N-(6-(5-hydroxy-2-methylphenyl)imidazo[1,2-a]pyridin-2-yl)cyclopropane-1-carboxamide] | < 10 | 10 to 100 | 10 to 100 |
| COC(=O)c1ccc(C)c(-c2ccc3nc(NC(=O)[C@@H]4C[C@@H]4F)cn3c2)c1 [Example 13, methyl 3-(2-((1S,2S)-2-fluorocyclopropane-1-carboxamido)imidazo[1,2-a]pyridin-6-yl)-4-methylbenzoate] | < 10 | > 1000 | > 1000 |
| Cc1c(F)cncc1-c1ccc2nc(NC(=O)[C@@H]3C[C@@H]3F)cn2c1 [Example 14, (1S,2S)-2-fluoro-N-(6-(5-fluoro-4-methylpyridin-3-yl)imidazo[1,2-a]pyridin-2-yl)cyclopropane-1-carboxamide] | < 10 | 101 to 1000 | 101 to 1000 |
| Cc1ccc2[nH]ccc2c1-c1ccc2nc(NC(=O)[C@@H]3C[C@@H]3F)cn2c1 [Example 15, (1S,2S)-2-fluoro-N-(6-(5-methyl-1H-indol-4-yl)imidazo[1,2-a]pyridin-2-yl)cyclopropane-1-carboxamide] | < 10 | < 10 | < 10 |
| Cc1c(F)cncc1-c1ccc2nc(NC(=O)[C@@H]3C[C@@H]3F)c(Cl)n2c1 [Example 16, (1S,2S)—N-(3-chloro-6-(5-fluoro-4-methylpyridin-3-yl)imidazo[1,2-a]pyridin-2-yl)-2-fluorocyclopropane-1-carboxamide] | 101 to 1000 | > 1000 | > 1000 |
| Cc1ccc(C#N)cc1-c1ccc2nc(NC(=O)[C@@H]3C[C@@H]3F)cn2c1 [Example 17, (1S,2S)—N-(6-(5-cyano-2-methylphenyl)imidazo[1,2-a]pyridin-2-yl)-2-fluorocyclopropane-1-carboxamide] | < 10 | 101 to 1000 | 101 to 1000 |
| O=C(Nc1cn2cc(-c3cc[nH]n3)ccc2n1)[C@@H]1C[C@@H]1F [Example 18, (1S,2S)—N-(6-(1H-pyrazol-3-yl)imidazo[1,2-a]pyridin-2-yl)-2-fluorocyclopropane-1-carboxamide] | 101 to 1000 | 101 to 1000 | 101 to 1000 |
| Cc1c[nH]nc1-c1ccc2nc(NC(=O)[C@@H]3C[C@@H]3F)cn2c1 [Example 19, (1S,2S)-2-fluoro-N-(6-(4-methyl-1H-pyrazol-3-yl)imidazo[1,2-a]pyridin-2-yl)cyclopropane-1-carboxamide] | 10 to 100 | 101 to 1000 | 101 to 1000 |
| Cc1c(O)cccc1-c1ccc2nc(NC(=O)[C@@H]3C[C@@H]3F)cn2c1 [Example 20, (1S,2S)-2-fluoro-N-(6-(3-hydroxy-2-methylphenyl)imidazo[1,2-a]pyridin-2-yl)cyclopropane-1-carboxamide] | < 10 | < 10 | 10 to 100 |
| O=C(Nc1cn2cc(-c3cnccc3Cl)ccc2n1)[C@@H]1C[C@@H]1F [Example 21, (1S,2S)—N-(6-(4-chloropyridin-3-yl)imidazo[1,2-a]pyridin-2-yl)-2-fluorocyclopropane-1-carboxamide] | 10 to 100 | 101 to 1000 | 101 to 1000 |
| Cc1cccc(-c2ccc3nc(NC(=O)[C@@H]4C[C@@H]4F)cn3c2)c1C [Example 22, (1S,2S)—N-(6-(2,3-dimethylphenyl)imidazo[1,2-a]pyridin-2-yl)-2-fluorocyclopropane-1-carboxamide] | < 10 | 101 to 1000 | 101 to 1000 |
| Cc1ccc(N)cc1-c1ccc2nc(NC(=O)[C@@H]3C[C@@H]3F)cn2c1 [Example 23, (1S,2S)—N-(6-(5-amino-2-methylphenyl)imidazo[1,2-a]pyridin-2-yl)-2-fluorocyclopropane-1-carboxamide] | < 10 | 101 to 1000 | 10 to 100 |
| CNc1ccc(C)c(-c2ccc3nc(NC(=O)[C@@H]4C[C@@H]4F)cn3c2)c1 [Example 24, (1S,2S)-2-fluoro-N-(6-(2-methyl-5-(methylamino)phenyl)imidazo[1,2-a]pyridin-2-yl)cyclopropane-1-carboxamide] | < 10 | 101 to 1000 | 10 to 100 |
| CC(=O)Nc1ccc(C)c(-c2ccc3nc(NC(=O)[C@@H]4C[C@@H]4F)cn3c2)c1 [Example 25, (1S,2S)—N-(6-(5-acetamido-2-methylphenyl)imidazo[1,2-a]pyridin-2-yl)-2-fluorocyclopropane-1-carboxamide] | 10 to 100 | > 1000 | 101 to 1000 |
| Cc1ccc(Cl)cc1-c1ccc2nc(NC(=O)[C@@H]3C[C@@H]3F)cn2c1 [Example 26, (1S,2S)—N-(6-(5-chloro-2-methylphenyl)imidazo[1,2-a]pyridin-2-yl)-2-fluorocyclopropane-1-carboxamide] | < 10 | 101 to 1000 | 101 to 1000 |
| O=C(Nc1cn2cc(-c3cnc4[nH]ccc4c3)ccc2n1)[C@@H]1C[C@@H]1F [Example 27, (1S,2S)—N-(6-(1H-pyrrolo[2,3-b]pyridin-5-yl)imidazo[1,2-a]pyridin-2-yl)-2-fluorocyclopropane-1-carboxamide] | < 10 | 101 to 1000 | 10 to 100 |
| Cc1ccc(-c2cc[nH]n2)cc1-c1ccc2nc(NC(=O)[C@@H]3C[C@@H]3F)cn2c1 [Example 28, (1S,2S)-2-fluoro-N-(6-(2-methyl-5-(1H-pyrazol-3-yl)phenyl)imidazo[1,2-a]pyridin-2-yl)cyclopropane-1-carboxamide] | < 10 | 101 to 1000 | 101 to 1000 |
